{"source": "patent US9675591B2", "about": "“Methods for treating seizure disorders and pain” (THE REGENTS OF THE UNIVERSITY OF CALIFORNIA, priority 2013, dated 2017)", "key": {"MES-induced seizures": {"test_system": "MES-induced seizures", "experiment": "MES seizure test, CF-1 mice, compounds given i.p. as solution", "type": "in vivo", "description": "MES assays were performed at the Department of Neurology at the University of California with CF-1 mice. This study was approved by the University of California, Davis, Animal Use and Care Committee and conducted in accordance with the guidelines of Animal Use and Care of the National Institutes of Health and the University of California. For these assays, stock solutions of SKA-19 (5 mg/ml) were prepared in 5% CremophorEL (Sigma-Aldrich, St. Louis, Mo., USA) and 95% saline, diluted further with saline, and SKA-19 was administered i.p. in a volume of 10 ml/kg body weight. Animals were subjected to a 0.2-s, 60-Hz electrical stimulus through corneal electrodes (5 mm diameter stainless steel balls). The electroshock unit was adjusted to deliver a constant current of 50 mA. Immediately before stimulation, the corneal electrodes were wetted with saline to provide good electrical contact. Animals failing to show tonic hindlimb extension were scored as protected (Kokate et al., 1994).\n(§1) The mouse maximal electroshock (MES) and 6 Hz seizure models were used. Motor toxicity was assessed using a modification of the horizontal screen test. ED50 values in the seizure models and TD50 values in the toxicity test were determined by nonlinear fitting of dose-response curves. […] Drugs solutions were injected intraperitoneally 10 min prior to administration of the electrical stimulus in a volume of 10 ml/kg body weight."}, "[1]": {"test_system": "lamotrigine resistant amygdala kindled rats", "experiment": "Lamotrigine resistant amygdala kindled rats", "type": "in vivo"}, "mice": {"test_system": "mice", "experiment": "Motor toxicity, horizontal screen test in mice", "type": "in vivo", "settings": "i.p. as solution, 10 min time point", "description": "(§2) Abnormal neurological status in mice following SKA-19 administration was evaluated with the rotorod test. When a normal mouse is placed on a rod 1 inch in diameter that rotates at a speed of 6 rpm, the mouse can maintain equilibrium for a long time. Inability of the mouse to stay on the rotating rod in three trials for 1 min is taken as an indication of motor impairment. […] Mice were placed on a horizontally oriented grid (consisting of parallel 1.5-mm diameter rods situated 1 cm apart), and the grid was inverted. Animals that fell from the grid within 10 s were scored as impaired.\nas §1"}, "[2]": {"experiment": "Motor toxicity, horizontal screen test in mice", "type": "in vivo", "settings": "in vivo, ip, i.p. as solution, 10 min time point, read-out: TD50, neurological impairment (horizontal screen)", "description": "as §2, §1"}, "hippocampal kindled rats": {"test_system": "hippocampal kindled rats", "experiment": "Hippocampal kindled seizures", "type": "in vivo", "description": "Bipolar electrodes were surgically implanted into the hippocampus of anesthetized rats, which were allowed to recover for one week. One week after the surgery, the rats were stimulated with suprathreshold trains of 200 μAmps for 10 sec, 50 Hz, every 30 min for 6 hours (12 stimulations per day) on alternate days (4 to 5 stimulus days) until they were fully kindled. One week later the effect of a single i.p. dose of test compound was assessed on behavioral seizure score (BSS) and afterdischarge duration (ADD). An initial group of kindled rats (n=6-8) were tested at 15, 45, 75, 105, 135, 165, and 195 min after drug administration. Results obtained at the various time points were compared with the last control stimulus delivered 15 minutes prior to drug administration. Thus, each animal serves as its own control. The BSS's were scored according to the following criteria: Stage 1—mouth and facial clonus; Stage 2—stage 1 plus head nodding; Stage 3—stage 2 plus forelimb clonus; Stage 4—stage 3 plus rearing; Stage 5—stage 4 plus repeated rearing and falling. The afterdischarge threshold (ADT) is measured in the kindled rat. […] The BSS and ADD for each dose were averaged at the TPE, the S.E.M. calculated, and the significance of the difference compared to control values determined. (Significant differences in BSS from control and treated groups are determined by the non-parametric Mann-Whitney U test)."}, "Nav1.4": {"biological_target": "Nav1.4 (Homo sapiens (Human), UniProt P35499)", "sequence (P35499 whole entry)": "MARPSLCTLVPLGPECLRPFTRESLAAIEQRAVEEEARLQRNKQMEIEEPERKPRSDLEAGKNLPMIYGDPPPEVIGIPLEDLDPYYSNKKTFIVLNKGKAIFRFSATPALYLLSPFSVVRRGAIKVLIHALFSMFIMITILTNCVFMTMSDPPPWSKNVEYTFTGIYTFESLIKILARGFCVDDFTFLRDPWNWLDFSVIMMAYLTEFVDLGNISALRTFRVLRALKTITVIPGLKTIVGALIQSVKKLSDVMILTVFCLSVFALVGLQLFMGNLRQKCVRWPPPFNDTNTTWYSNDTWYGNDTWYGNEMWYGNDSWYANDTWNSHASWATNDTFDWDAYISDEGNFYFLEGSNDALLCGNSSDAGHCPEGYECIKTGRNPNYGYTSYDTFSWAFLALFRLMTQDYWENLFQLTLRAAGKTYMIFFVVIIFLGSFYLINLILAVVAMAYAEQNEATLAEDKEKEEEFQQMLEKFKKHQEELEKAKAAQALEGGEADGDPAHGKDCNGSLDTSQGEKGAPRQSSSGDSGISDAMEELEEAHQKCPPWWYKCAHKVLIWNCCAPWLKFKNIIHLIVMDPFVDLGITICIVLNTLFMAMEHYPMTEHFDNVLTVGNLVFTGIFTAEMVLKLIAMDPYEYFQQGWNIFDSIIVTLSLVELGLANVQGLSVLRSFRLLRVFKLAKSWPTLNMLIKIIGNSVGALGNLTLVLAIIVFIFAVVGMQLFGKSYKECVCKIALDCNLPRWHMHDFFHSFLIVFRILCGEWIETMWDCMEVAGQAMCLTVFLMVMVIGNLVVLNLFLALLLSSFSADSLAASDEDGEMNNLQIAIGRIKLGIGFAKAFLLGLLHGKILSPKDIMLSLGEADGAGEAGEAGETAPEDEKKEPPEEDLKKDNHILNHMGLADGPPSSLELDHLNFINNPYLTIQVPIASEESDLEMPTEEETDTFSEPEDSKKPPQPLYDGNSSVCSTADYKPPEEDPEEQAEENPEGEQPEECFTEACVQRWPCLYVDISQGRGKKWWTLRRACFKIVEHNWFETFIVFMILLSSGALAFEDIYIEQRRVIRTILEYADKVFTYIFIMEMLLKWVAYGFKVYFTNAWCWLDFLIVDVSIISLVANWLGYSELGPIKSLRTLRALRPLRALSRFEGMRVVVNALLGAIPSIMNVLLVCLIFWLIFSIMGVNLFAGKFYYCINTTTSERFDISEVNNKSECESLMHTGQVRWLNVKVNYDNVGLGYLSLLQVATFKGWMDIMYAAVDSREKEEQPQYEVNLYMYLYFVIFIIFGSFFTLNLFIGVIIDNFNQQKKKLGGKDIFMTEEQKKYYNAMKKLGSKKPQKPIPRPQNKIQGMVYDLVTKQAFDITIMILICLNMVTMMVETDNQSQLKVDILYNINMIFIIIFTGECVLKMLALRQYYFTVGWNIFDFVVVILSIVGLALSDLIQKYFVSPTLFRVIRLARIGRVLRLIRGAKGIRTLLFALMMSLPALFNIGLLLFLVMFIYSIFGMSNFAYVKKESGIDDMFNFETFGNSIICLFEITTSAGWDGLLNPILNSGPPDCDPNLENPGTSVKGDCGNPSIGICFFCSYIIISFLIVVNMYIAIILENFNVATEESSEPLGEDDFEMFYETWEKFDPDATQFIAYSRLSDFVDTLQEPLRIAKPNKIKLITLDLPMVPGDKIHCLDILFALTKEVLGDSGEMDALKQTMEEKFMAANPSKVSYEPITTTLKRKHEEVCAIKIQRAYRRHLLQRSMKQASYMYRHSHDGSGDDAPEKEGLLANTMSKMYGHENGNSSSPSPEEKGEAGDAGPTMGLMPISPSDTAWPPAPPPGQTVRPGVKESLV", "experiment": "Voltage-clamp, Nav1.4 in HEK-293 cells", "type": "cell-based", "description": "All experiments were conducted at room temperature (22-24° C.) with an EPC-10 amplifier and Pulse software (HEKA, Lambrecht/Pfalz, Germany) in the whole-cell mode of the patch-clamp technique. Human embryonic kidney (HEK)-293 cell lines stably expressing hNav1.1, hNav1.5, hNav1.7 channels (generously provided by Dr. Christopher Lossin, University of California Davis), hNav1.4 (Frank Lehmann-Horn, University of Ulm), or hKv2.1 channels (James Trimmer, University of California Davis) were bathed in extracellular solution containing (in mM): 160 NaCl; 4.5 KCl; 1 MgCl2; 2 CaCl2; 10 HEPES [pH was adjusted to 7.4 using NaOH (310 mOsm)]. Pipettes were filled with intracellular solution containing (in mM): 145 KF; 2 MgCl2; 10 ethylene glycol tetraacetic acid; 10 HEPES (pH adjusted to 7.2 with KOH; 300 mOsm). Neuroblastoma N1E-115 cells (ATCC, Manassa, Va., USA) expressing Nav1.2 were patched with a CsF internal solution consisting of (in mM): 10 NaF; 110 CsF; 20 CsCl; 2 ethylene glycol tetraacetic acid; 10 HEPES (CsOH to pH 7.35; 300 mOsm). All pipette tip resistances were 2-4 MΩ. Series resistances of 3-10 MΩ were compensated 40-80%. All cells were voltage-clamped to a holding potential of −90 mV unless otherwise specified. The sampling frequency was 5 kHz. Na^+ currents were elicited by 30-ms pulse to 0 mV from −90 mV applied every 10 s. […]"}, "Nav1.2": {"biological_target": "Nav1.2 (Mus musculus (Mouse), UniProt B1AWN6)", "sequence (B1AWN6 whole entry)": "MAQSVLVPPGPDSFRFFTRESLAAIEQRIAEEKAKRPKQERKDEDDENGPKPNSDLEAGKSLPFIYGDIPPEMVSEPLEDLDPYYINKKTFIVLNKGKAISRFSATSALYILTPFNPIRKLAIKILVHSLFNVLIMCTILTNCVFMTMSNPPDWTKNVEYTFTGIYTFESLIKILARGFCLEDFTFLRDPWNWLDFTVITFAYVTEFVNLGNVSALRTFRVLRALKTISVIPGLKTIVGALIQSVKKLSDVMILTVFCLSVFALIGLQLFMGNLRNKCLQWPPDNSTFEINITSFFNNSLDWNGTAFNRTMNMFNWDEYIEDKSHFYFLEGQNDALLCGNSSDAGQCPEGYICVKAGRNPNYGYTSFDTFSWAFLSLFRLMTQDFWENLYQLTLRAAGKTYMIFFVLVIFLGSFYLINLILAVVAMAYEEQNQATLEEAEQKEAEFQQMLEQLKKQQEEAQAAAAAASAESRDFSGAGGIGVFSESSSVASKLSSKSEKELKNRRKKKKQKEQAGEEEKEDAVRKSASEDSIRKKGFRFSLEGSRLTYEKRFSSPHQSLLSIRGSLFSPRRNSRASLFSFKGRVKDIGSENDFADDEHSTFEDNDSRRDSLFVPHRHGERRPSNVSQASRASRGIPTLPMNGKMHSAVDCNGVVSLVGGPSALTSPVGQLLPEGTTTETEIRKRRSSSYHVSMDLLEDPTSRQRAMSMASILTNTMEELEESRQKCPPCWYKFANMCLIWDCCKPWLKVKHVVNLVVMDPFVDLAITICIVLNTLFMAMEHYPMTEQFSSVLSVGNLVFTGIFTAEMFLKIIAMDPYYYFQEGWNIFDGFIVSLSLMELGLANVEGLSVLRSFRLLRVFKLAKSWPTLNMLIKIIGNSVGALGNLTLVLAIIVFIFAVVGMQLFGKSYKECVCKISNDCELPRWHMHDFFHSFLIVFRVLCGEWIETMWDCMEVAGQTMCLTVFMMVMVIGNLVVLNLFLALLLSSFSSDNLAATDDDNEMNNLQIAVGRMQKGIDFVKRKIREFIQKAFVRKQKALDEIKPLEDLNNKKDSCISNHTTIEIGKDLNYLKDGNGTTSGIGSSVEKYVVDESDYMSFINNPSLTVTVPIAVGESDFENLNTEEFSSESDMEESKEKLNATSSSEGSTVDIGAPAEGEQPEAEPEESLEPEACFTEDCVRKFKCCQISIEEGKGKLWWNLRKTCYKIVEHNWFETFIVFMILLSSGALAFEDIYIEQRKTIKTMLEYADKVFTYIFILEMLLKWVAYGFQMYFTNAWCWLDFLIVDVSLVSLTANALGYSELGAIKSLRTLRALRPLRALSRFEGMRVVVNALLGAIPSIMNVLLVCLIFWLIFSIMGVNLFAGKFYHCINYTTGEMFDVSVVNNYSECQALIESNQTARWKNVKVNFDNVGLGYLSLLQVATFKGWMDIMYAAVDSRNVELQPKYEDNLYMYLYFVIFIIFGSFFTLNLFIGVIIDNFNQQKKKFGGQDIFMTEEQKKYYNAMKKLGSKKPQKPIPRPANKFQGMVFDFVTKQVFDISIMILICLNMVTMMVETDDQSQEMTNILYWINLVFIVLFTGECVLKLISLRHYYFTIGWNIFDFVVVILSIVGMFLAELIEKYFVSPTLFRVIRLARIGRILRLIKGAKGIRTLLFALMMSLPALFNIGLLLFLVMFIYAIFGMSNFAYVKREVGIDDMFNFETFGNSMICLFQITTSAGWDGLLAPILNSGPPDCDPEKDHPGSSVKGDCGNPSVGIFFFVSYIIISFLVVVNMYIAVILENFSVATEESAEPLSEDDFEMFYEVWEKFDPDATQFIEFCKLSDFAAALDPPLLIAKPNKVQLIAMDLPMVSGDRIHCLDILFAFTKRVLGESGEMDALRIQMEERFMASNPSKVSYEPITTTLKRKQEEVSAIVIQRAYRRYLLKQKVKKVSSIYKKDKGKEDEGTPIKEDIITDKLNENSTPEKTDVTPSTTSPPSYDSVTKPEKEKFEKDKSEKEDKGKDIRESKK", "experiment": "Voltage-clamp, Nav1.2 currents in N1E-115 neuroblastoma cells", "type": "cell-based", "description": "All experiments were conducted at room temperature (22-24° C.) with an EPC-10 amplifier and Pulse software (HEKA, Lambrecht/Pfalz, Germany) in the whole-cell mode of the patch-clamp technique. Human embryonic kidney (HEK)-293 cell lines stably expressing hNav1.1, hNav1.5, hNav1.7 channels (generously provided by Dr. Christopher Lossin, University of California Davis), hNav1.4 (Frank Lehmann-Horn, University of Ulm), or hKv2.1 channels (James Trimmer, University of California Davis) were bathed in extracellular solution containing (in mM): 160 NaCl; 4.5 KCl; 1 MgCl2; 2 CaCl2; 10 HEPES [pH was adjusted to 7.4 using NaOH (310 mOsm)]. Pipettes were filled with intracellular solution containing (in mM): 145 KF; 2 MgCl2; 10 ethylene glycol tetraacetic acid; 10 HEPES (pH adjusted to 7.2 with KOH; 300 mOsm). Neuroblastoma N1E-115 cells (ATCC, Manassa, Va., USA) expressing Nav1.2 were patched with a CsF internal solution consisting of (in mM): 10 NaF; 110 CsF; 20 CsCl; 2 ethylene glycol tetraacetic acid; 10 HEPES (CsOH to pH 7.35; 300 mOsm). All pipette tip resistances were 2-4 MΩ. Series resistances of 3-10 MΩ were compensated 40-80%. All cells were voltage-clamped to a holding potential of −90 mV unless otherwise specified. The sampling frequency was 5 kHz. Na^+ currents were elicited by 30-ms pulse to 0 mV from −90 mV applied every 10 s. Kv2.1 currents were elicited by 200-ms voltage steps from −90 to 40 mV applied every 10 s."}}, "note": "Where “and” joins values, the source holds several entries; their conditions need not be identical. Identical values can stand only once. Like-named read-outs stand apart in the source and are kept apart here.", "data": [{"smiles": "Nc1nc2ccc(SC(F)(F)F)cc2s1", "note": "[SKA-19, 6-((trifluoromethyl)thio)benzo[d]thiazol-2-amine]", "values": [{"measurement": "duration of full protection", "setting": "MES-induced seizures; 10 mg/kg i.p. as solution", "value": 2.5, "unit": "h"}, {"measurement": "duration of significant seizure protection", "setting": "MES-induced seizures; 5 and 6 mg/kg i.p. as solution", "value": "at least 90 min"}, {"measurement": "duration of protective activity", "setting": "MES-induced seizures; MES test, 10 mg/kg i.p. as solution", "value": "up to 4 h"}, {"measurement": "ED50", "setting": "MES-induced seizures; Mus musculus, ip, 10 min, i.p. as solution, 10 min time point, read-out: ED50, seizure protection in the MES test", "value": 4.93, "unit": "mg/kg"}, {"measurement": "onset of protection from seizures after application", "setting": "MES-induced seizures; i.p. as solution", "value": "≤ 5", "unit": "min"}, {"measurement": "protective index PI (TD50/ED50)", "setting": "MES-induced seizures; i.p. as solution, 10 min time point", "value": 3.2}, {"measurement": "rats protected", "setting": "[1]; 6 mg/kg", "value": "2 out of 8"}, {"measurement": "rats protected", "setting": "[1]; 50 mg/kg", "value": "3 out of 7"}, {"measurement": "TD50, neurological impairment (horizontal screen)", "setting": "mice", "value": 16.33, "unit": "mg/kg"}, {"measurement": "TD50 at 10 min", "setting": "[2]; CF-1, mouse", "value": 16.1, "unit": "mg/kg"}, {"measurement": "TD50 at 10 min", "setting": "[2]; mouse", "value": 16.1, "unit": "mg/kg"}, {"measurement": "afterdischarge duration (ADD)", "setting": "hippocampal kindled rats; 30 mg/kg i.p., two fully kindled rats", "value": "completely suppressed"}, {"measurement": "seizure score after treatment", "setting": "hippocampal kindled rats; 30 mg/kg i.p., two fully kindled rats, predrug score 4-5", "value": 0}, {"measurement": "ED50", "setting": "hippocampal kindled rats; Rattus norvegicus, ip, 2 h", "value": 5.47, "unit": "mg/kg"}, {"measurement": "toxicity in kindled rats", "setting": "hippocampal kindled rats; highest dose 15 mg/kg", "value": "no evidence of toxicity"}, {"measurement": "block of Nav1.4", "setting": "Nav1.4", "value": "low micromolar range"}, {"measurement": "IC50", "setting": "Nav1.4; read-out: EC50 or IC50, Nav1.4", "value": "4.5 ± 2.7", "unit": "µM"}, {"measurement": "IC50", "setting": "Nav1.2; 20 Hz, read-out: IC50, Nav1.2", "value": "0.52 ± 0.23", "unit": "µM"}, {"measurement": "IC50", "setting": "Nav1.2; -70 mV holding potential, read-out: IC50, Nav1.2", "value": "0.86 ± 0.7", "unit": "µM"}, {"measurement": "IC50", "setting": "Nav1.2; -120 mV holding potential, read-out: IC50, Nav1.2", "value": "9.5 ± 1.72", "unit": "µM"}, {"measurement": "IC50", "setting": "Nav1.2; changed holding potential, read-out: IC50, Nav1.2", "value": 0.86, "unit": "µM"}, {"measurement": "IC50", "setting": "Nav1.2; holding potential -90 mV, 0.1 Hz, read-out: EC50 or IC50, Nav1.2", "value": "~7.9 µM and 7.9 µM"}, {"measurement": "IC50", "setting": "Nav1.2; pulse frequency 20 Hz, read-out: IC50, Nav1.2", "value": 0.52, "unit": "µM"}]}]}
